Counter-ions that a name gives are not always drawn.
Tests used:
whole complement = assay: Complement level reduction in dosed guinea pigs (capillary tube assay); format: in vivo; settings: guinea pig, 200 mg/kg
[1] = system: shunt pathway activated by cobra venom factor; assay: Test, Code 036 (C-Shunt inhibitor), lysis of human erythrocytes in autologous serum; format: cell-based
Source text: (§1) An active inhibitor protects C2 from C1 and C4; (ii) Test, Code 035 (C3-C9 inhibitor) -- This test determines the ability of the late components of human complement (C3-C9) to lyse EAC 142 in the presence of appropriate dilutions of the test compound. An active inhibitor protects EAC 142 from lysis by human C3-C9; (iii) Test, Code 036 (C-Shunt inhibitor) -- In this test human erythrocytes rendered fragile are lysed in autologous serum via the shunt pathway activated by cobra venom factor in the presence of appropriate dilutions of the test compound. Inhibition of the shunt pathway results in failure of lysis; (iv) Forssman Vasculitis Test -- Here, the well known complement dependent lesion, Forssman vasculitis, is produced in guinea pigs by intradermal injection of rabbit anti-Forssman antiserum. The lesion is measured in terms of diameter, edema and hemorrhage and the extent to which a combined index of these is inhibited by prior intraperitoneal injection of the test compound at 200 mg/kg is then reported, unless otherwise stated; (v) Forssman Shock Test -- Lethal shock is produced in guinea pigs by an i.v. injection of anti-Forssman antiserum and the harmonic mean death time of treated guinea pigs is compared with that of simultaneous controls; (vi) Complement Level Reduction Test -- In this test, the above dosed guinea pigs, or others, are bled for serum and the complement level is determined in undiluted serum by the capillary tube method of U.S. Pat. No. 3,876,376 and compared to undosed control guinea pigs; and (vii) Cap 50 Test -- Here, appropriate amounts of the test compound are added to a pool of guinea pig serum in vitro, after which the undiluted serum capillary tube assay referred to above is run. The concentration of compound inhibiting 50% is reported.

[2] = system: late components of human complement (C3-C9); assay: Test, Code 035 (C3-C9 inhibitor), lysis of EAC 142; format: cell-based; settings: human C3-C9, EAC 142, in vitro
Source text: as §1

[3] = system: hereditary angioneurotic edema; settings: New England Journal of Medicine, 286, 808-812 (1972); cited from earlier work
activated human C1 = target: T1, activated human C1 (Homo sapiens, UniProt P09871); assay: Test, Code 026 (C1 inhibitor); format: biochemical; settings: human C1, in vitro
T1 construct: fluid-phase human C2 cleavage in presence of C4
Source text: An active inhibitor protects C2 from C1 and C4; (ii) Test, Code 035 (C3-C9 inhibitor) -- This test determines the ability of the late components of human complement (C3-C9) to lyse EAC 142 in the presence of appropriate dilutions of the test compound. An active inhibitor protects EAC 142 from lysis by human C3-C9; (iii) Test, Code 036 (C-Shunt inhibitor) -- In this test human erythrocytes rendered fragile are lysed in autologous serum via the shunt pathway activated by cobra venom factor in the presence of appropriate dilutions of the test compound. Inhibition of the shunt pathway results in failure of lysis; (iv) Forssman Vasculitis Test -- Here, the well known complement dependent lesion, Forssman vasculitis, is produced in guinea pigs by intradermal injection of rabbit anti-Forssman antiserum. […]

complement system = settings: literature; cited from earlier work

T1 sequence (P09871 16-688): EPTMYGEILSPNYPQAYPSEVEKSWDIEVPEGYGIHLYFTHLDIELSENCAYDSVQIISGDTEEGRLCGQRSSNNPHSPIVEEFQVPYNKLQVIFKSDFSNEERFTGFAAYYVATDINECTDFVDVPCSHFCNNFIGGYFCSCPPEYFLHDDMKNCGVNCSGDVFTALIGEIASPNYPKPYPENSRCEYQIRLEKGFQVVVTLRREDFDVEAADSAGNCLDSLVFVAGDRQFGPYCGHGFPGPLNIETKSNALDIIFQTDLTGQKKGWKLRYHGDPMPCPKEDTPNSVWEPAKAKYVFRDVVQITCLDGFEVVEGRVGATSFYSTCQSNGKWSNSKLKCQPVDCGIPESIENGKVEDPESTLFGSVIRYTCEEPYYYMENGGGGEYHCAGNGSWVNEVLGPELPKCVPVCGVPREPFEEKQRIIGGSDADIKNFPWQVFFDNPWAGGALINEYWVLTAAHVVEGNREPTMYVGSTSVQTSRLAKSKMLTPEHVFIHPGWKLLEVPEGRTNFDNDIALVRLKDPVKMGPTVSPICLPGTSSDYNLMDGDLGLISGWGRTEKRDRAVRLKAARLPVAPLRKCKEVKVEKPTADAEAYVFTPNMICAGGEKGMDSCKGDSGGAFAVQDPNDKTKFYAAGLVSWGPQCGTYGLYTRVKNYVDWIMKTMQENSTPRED
T1 sequence (P00736 18-705 partner): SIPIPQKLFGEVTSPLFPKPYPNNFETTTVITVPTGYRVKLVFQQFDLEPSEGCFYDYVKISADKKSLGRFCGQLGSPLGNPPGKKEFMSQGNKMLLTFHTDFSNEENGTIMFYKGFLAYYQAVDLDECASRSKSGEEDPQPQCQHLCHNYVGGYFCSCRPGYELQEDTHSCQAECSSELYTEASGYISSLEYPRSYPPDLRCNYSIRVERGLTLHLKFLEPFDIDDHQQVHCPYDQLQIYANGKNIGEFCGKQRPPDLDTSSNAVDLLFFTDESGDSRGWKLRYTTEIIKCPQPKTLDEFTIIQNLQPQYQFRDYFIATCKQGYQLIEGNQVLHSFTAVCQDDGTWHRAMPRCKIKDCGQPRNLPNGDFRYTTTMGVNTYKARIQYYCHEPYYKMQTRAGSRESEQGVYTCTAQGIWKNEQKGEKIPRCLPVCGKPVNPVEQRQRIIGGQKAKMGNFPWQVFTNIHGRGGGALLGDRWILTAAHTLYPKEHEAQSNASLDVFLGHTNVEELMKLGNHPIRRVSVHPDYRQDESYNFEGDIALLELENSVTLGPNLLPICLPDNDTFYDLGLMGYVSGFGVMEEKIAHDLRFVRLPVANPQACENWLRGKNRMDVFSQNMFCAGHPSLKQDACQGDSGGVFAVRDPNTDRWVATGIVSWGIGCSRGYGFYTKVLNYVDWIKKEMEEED
T1 sequence (P02745 23-245 partner): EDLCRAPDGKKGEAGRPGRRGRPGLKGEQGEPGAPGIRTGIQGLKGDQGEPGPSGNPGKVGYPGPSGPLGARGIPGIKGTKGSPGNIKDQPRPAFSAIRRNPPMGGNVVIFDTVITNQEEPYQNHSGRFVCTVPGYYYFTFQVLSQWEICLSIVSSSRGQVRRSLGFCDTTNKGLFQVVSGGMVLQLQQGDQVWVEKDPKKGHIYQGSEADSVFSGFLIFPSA
T1 sequence (P02746 28-253 partner): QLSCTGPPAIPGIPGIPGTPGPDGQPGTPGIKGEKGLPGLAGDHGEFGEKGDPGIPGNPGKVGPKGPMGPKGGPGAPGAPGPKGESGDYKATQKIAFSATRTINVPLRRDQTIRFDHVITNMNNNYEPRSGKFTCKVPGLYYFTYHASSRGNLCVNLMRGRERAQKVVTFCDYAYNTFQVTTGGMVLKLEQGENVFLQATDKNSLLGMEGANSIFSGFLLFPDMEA
T1 sequence (P02747 29-245 partner): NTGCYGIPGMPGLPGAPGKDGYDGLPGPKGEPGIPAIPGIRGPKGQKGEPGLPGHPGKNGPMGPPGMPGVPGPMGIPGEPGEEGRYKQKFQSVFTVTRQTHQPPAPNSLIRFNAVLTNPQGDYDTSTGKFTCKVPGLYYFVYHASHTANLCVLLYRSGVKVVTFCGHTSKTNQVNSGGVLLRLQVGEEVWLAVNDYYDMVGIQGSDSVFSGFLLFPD

Compound | % change in complement level (whole complement; i.p., time 30) | % change in complement level (whole complement; i.p., time 60) | Shunt Inhibition 036* Wells [1] | use in treatment of hereditary angioneurotic edema [3] | anticomplementary effect / complement inhibition (complement system) | further results
O=C(Nc1cc(C(=O)Nc2cc(S(=O)(=O)O)cc3cc(S(=O)(=O)O)cc(O)c23)cc(C(=O)Nc2cc(S(=O)(=O)O)cc3cc(S(=O)(=O)O)cc(O)c23)c1)Nc1cc(C(=O)Nc2cc(S(=O)(=O)O)cc3cc(S(=O)(=O)O)cc(O)c23)cc(C(=O)Nc2cc(S(=O)(=O)O)cc3cc(S(=O)(=O)O)cc(O)c23)c1 [4,4',4",4'"-[Carbonylbis[imino-5,1,3-benzenetriylbis(carbonylimino)]]tetrakis[5-hydroxy-2,7-naphthalenedisulfonic acid] octasodium salt] | -69% | -92% | +1 Wells | – | – | % change in complement level (whole complement; i.p., time 120): -98%
O=C(Nc1cc(C(=O)Nc2cc(S(=O)(=O)O)cc3cc(S(=O)(=O)O)ccc23)cc(C(=O)Nc2cc(S(=O)(=O)O)cc3cc(S(=O)(=O)O)ccc23)c1)Nc1cc(C(=O)Nc2cc(S(=O)(=O)O)cc3cc(S(=O)(=O)O)ccc23)cc(C(=O)Nc2cc(S(=O)(=O)O)cc3cc(S(=O)(=O)O)ccc23)c1 [4,4',4",4'"-{Carbonylbis[imino-5,1,3-benzenetriylbis(carbonylimino)]}tetrakis[2,7-naphthalenedisulfonic acid] octasodium salt] | – | – | +3 Wells | – | – | C-Late 035* Wells [2]: +1 Wells; C-Late 035* Wells (class symbol N) [2]: N (N means inactive, O Wells)
NCCCCCC(=O)O [6-aminohexanoic acid] | – | – | – | used with success | – | –
O=C(Nc1cc(C(=O)Nc2ccc(S(=O)(=O)O)c3cc(S(=O)(=O)O)cc(S(=O)(=O)O)c23)cc(C(=O)Nc2ccc(S(=O)(=O)O)c3cc(S(=O)(=O)O)cc(S(=O)(=O)O)c23)c1)Nc1cc(C(=O)Nc2ccc(S(=O)(=O)O)c3cc(S(=O)(=O)O)cc(S(=O)(=O)O)c23)cc(C(=O)Nc2ccc(S(=O)(=O)O)c3cc(S(=O)(=O)O)cc(S(=O)(=O)O)c23)c1 [8,8',8",8"'-[Carbonylbis[imino-5,1,3-benzenetriylbis(carbonylimino)]]tetrakis[1-3,5-naphthalenesulfonic acid] dodecasodium salt] | -98% | -98% | – | – | – | –
O=C(Nc1cc(C(=O)Nc2cc(S(=O)(=O)O)cc3cc(S(=O)(=O)O)cc(S(=O)(=O)O)c23)cc(C(=O)Nc2cc(S(=O)(=O)O)cc3cc(S(=O)(=O)O)cc(S(=O)(=O)O)c23)c1)Nc1cc(C(=O)Nc2cc(S(=O)(=O)O)cc3cc(S(=O)(=O)O)cc(S(=O)(=O)O)c23)cc(C(=O)Nc2cc(S(=O)(=O)O)cc3cc(S(=O)(=O)O)cc(S(=O)(=O)O)c23)c1 [8,8',8",8'"-[Carbonylbis[imino-5,1,3-benzenetriylbis(carbonylimino)]]tetrakis[1,3,6-naphthalenetrisulfonic acid]dodecasodium salt] | -88% | -85% | +5 Wells | – | – | % change in complement level (whole complement; i.p., time 120): -92%; % change in complement level (whole complement; i.v., time 2): -98%; % change in complement level (whole complement; i.v., time 30): -97%; % change in complement level (whole complement; i.v., time 120): -89%; C-Late 035* Wells [2]: +3 Wells; C1 026* Wells (activated human C1): +9 Wells
Cc1ccc(C(=O)Nc2ccc(S(=O)(=O)O)c3cc(S(=O)(=O)O)cc(S(=O)(=O)O)c23)cc1NC(=O)c1cccc(NC(=O)Nc2cccc(C(=O)Nc3cc(C(=O)Nc4ccc(S(=O)(=O)O)c5cc(S(=O)(=O)O)cc(S(=O)(=O)O)c45)ccc3C)c2)c1 [Suramin] | – | – | – | used with success | competitive inhibitor of the complement system | –
Nc1ccc2cc(S(=O)(=O)O)cc(O)c2c1N=Nc1ccc(NC(=O)Nc2ccc(N=Nc3c(N)ccc4cc(S(=O)(=O)O)cc(O)c34)c(S(=O)(=O)O)c2)cc1S(=O)(=O)O [chlorazol fast pink, 3,3-(carbonyldiimino)bis[6-(2-amino-8-hydroxy-6-sulfo-1-naphthylazo)benzenesulfonic acid], tetrasodium salt] | – | – | – | – | anticomplementary effect | –
NC[C@H]1CC[C@H](C(=O)O)CC1 [trans-4-(aminomethyl)-cyclohexanecarboxylic acid] | – | – | – | used with success | – | –
heparin | – | – | – | – | anticomplementary effect | –

— patent US4129591A, “Ureida-phenylenebis(substituted imino)multianionic substituted dinaphthalene sulfonic acids and salts” (American Cyanamid Company, priority 1976, dated 1978)
